ChEMBL document CHEMBL5465560, “Selectivity Literature for EUbOPEN Chemogenomic Library” (2024)

Assays:
[1] = target: Calcium/calmodulin-dependent protein kinase type 1D (Homo sapiens) (UniProt Q8IU85); assay: Selectivity interaction (Kinase panel (KiNativ target engagement assay in Jurkat cells)) EUB0001635a CAMK1D; assay type: cell-based; details: at 1 µM
[2] = target: Tyrosine-protein kinase FRK (Homo sapiens) (UniProt P42685); assay: Selectivity interaction (KinomeScan (DiscoverX)) EUB0000045b FRK
[3] = target: T1, Serine/threonine-protein kinase TAO3 (Homo sapiens) (UniProt Q9H2K8); assay: Selectivity interaction (KinomeScan (DiscoverX)) EUB0001079a TAOK3; details: at 1 µM
T1 sequence (whole entry): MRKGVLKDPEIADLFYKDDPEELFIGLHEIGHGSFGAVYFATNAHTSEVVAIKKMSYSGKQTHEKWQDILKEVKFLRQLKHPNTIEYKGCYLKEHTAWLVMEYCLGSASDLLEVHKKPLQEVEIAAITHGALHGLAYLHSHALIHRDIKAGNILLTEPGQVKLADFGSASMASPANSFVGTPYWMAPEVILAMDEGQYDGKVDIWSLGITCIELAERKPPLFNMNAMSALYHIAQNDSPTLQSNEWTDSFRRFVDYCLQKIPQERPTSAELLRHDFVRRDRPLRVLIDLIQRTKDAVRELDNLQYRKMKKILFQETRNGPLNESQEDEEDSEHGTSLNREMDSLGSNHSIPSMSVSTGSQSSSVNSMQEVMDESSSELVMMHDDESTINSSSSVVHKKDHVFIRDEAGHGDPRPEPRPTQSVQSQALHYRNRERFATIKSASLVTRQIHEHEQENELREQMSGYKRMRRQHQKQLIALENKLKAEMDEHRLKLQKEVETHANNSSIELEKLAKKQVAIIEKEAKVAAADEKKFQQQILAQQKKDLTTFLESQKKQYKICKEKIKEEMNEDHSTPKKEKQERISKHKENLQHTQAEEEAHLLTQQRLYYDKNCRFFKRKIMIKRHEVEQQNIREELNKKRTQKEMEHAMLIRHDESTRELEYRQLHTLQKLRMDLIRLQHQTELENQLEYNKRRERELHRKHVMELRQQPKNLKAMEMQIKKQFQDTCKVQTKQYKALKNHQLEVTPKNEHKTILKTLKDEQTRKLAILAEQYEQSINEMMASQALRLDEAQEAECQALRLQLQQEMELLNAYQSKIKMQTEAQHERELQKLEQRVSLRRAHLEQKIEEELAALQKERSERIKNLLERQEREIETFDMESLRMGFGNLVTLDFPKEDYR

[4] = target: Mitogen-activated protein kinase 4 (Homo sapiens) (UniProt P31152); assay: Selectivity interaction (KinomeScan (DiscoverX)) EUB0001079a MAPK4; details: at 1 µM
[5] = test system: Proto-oncogene tyrosine-protein kinase receptor Ret (Homo sapiens), P07949 [V804L]; assay: (§1) Selectivity interaction (KinomeScan (DiscoverX)) EUB0001049a RET; details: at 1 µM
[6] = test system: Proto-oncogene tyrosine-protein kinase receptor Ret (Homo sapiens), P07949 [M918T]; assay: as §1; details: at 1 µM
[7] = test system: Proto-oncogene tyrosine-protein kinase receptor Ret (Homo sapiens), P07949 [V804M]; assay: as §1; details: at 1 µM
[8] = target: Proto-oncogene tyrosine-protein kinase receptor Ret (Homo sapiens, UniProt P07949); assay: as §1; details: at 1 µM
[9] = target: Tyrosine-protein kinase Lck (Homo sapiens, UniProt P06239); assay: Selectivity interaction (Upstate Kinase Profiler service (Millipore)) EUB0000056c LCK; details: at 1 µM
[10] = target: Calcium/calmodulin-dependent protein kinase kinase 2 (Homo sapiens) (UniProt Q96RR4); assay: Selectivity interaction (Kinase panel (literature)) EUB0001199aCl CAMKK2; details: at 1 µM
[11] = target: Bone morphogenetic protein receptor type-1A (Homo sapiens, UniProt P36894); assay: Selectivity interaction (KinomeScan (DiscoverX)) EUB0000655a BMPR1A; details: at 10 µM
[12] = target: T2, Serine/threonine-protein kinase Sgk3 (Homo sapiens) (UniProt Q96BR1); assay: Selectivity interaction (KinomeScan (DiscoverX)) EUB0000092b SGK3; details: at 10 µM
T2 sequence (whole entry): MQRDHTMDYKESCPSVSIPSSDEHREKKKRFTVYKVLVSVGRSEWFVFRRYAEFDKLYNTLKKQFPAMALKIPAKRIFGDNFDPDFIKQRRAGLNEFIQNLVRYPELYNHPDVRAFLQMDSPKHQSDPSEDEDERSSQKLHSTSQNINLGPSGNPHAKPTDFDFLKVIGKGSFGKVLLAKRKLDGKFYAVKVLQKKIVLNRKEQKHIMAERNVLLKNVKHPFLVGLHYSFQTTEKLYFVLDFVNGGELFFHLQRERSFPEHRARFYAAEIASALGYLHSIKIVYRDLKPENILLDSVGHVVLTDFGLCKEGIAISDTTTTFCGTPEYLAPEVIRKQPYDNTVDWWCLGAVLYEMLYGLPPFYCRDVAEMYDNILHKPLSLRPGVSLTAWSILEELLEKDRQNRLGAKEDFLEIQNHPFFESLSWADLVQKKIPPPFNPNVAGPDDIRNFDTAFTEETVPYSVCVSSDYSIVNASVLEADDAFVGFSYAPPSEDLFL

[13] = target: Mitogen-activated protein kinase kinase kinase 11 (Homo sapiens) (UniProt Q16584); assay: Selectivity interaction (Ambit KINOMEscan and KiNATiv profiling in Jurkat cells) EUB0000090b MAP3K11; assay type: cell-based; details: at 1 µM
[14] = target: Eukaryotic translation initiation factor 2-alpha kinase 1 (Homo sapiens) (UniProt Q9BQI3); assay: Selectivity interaction (Ambit KINOMEscan and KiNATiv profiling in Jurkat cells) EUB0000090b EIF2AK1; assay type: cell-based; details: at 1 µM
[15] = target: Wee1-like protein kinase 2 (Homo sapiens) (UniProt P0C1S8); assay: Selectivity interaction (Ambit KINOMEscan and KiNATiv profiling in Jurkat cells) EUB0000090b WEE2; assay type: cell-based; details: at 1 µM

Chain of Calcium/calmodulin-dependent protein kinase type 1D (Homo sapiens) (Q8IU85 whole entry, looked up): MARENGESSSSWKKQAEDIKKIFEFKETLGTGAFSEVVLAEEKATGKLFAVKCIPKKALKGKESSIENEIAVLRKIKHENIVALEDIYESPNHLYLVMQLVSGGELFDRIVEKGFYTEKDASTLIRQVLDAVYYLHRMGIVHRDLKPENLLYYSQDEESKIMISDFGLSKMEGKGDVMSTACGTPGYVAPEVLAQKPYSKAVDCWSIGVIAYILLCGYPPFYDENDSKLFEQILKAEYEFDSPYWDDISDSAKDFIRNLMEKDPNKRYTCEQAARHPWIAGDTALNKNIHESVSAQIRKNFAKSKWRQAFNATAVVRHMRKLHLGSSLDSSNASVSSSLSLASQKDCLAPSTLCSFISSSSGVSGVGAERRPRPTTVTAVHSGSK
Chain of Tyrosine-protein kinase FRK (Homo sapiens) (P42685 whole entry): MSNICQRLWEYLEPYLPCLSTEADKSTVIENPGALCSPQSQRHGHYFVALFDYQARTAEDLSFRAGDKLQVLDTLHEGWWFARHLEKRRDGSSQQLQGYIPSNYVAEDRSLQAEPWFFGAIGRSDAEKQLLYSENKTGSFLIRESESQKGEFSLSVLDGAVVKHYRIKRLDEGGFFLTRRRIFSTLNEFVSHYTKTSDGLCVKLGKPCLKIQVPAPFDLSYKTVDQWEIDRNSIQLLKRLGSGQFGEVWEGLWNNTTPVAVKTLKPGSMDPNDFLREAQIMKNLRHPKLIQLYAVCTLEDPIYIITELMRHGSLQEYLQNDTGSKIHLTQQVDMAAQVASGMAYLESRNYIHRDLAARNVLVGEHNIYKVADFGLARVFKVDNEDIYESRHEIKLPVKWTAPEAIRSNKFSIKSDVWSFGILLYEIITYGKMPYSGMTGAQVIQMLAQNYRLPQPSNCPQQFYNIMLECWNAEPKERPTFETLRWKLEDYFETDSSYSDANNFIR
Chain of Mitogen-activated protein kinase kinase kinase 11 (Homo sapiens) (Q16584 whole entry, looked up): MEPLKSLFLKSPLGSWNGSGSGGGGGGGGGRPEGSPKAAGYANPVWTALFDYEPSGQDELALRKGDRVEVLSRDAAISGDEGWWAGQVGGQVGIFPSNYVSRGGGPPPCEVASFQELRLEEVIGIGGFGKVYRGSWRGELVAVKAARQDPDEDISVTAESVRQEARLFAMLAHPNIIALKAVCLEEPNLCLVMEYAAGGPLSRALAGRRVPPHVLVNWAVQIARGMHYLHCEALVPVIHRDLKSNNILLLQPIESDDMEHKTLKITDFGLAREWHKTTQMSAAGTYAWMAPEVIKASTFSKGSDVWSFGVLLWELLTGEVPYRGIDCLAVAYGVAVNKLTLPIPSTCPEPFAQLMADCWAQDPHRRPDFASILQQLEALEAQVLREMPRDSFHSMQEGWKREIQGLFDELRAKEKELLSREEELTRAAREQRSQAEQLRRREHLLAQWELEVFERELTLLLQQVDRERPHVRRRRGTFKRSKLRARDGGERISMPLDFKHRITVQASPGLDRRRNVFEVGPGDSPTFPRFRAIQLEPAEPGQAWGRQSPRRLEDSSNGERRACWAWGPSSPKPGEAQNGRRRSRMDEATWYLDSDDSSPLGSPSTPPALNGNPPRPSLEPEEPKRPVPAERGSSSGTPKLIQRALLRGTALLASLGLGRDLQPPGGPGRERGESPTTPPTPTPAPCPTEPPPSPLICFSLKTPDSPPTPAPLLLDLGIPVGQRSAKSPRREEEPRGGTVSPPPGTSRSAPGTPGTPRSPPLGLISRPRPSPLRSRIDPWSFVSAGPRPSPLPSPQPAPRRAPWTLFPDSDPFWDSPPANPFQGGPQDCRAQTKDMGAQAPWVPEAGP
Chain of Tyrosine-protein kinase Lck (P06239 2-509 limits assumed): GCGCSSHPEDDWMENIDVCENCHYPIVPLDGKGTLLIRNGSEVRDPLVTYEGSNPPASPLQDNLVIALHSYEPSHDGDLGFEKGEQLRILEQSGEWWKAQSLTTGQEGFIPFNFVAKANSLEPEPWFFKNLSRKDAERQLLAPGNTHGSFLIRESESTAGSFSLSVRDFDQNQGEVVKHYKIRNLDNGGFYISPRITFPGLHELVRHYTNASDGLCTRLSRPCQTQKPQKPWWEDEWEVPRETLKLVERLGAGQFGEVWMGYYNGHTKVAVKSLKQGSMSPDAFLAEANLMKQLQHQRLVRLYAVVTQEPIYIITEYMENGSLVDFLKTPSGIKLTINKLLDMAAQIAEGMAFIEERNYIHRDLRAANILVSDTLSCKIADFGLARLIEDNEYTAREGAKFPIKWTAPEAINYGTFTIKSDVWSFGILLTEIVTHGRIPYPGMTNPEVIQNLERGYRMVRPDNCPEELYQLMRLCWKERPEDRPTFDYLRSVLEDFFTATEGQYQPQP
Chain of Bone morphogenetic protein receptor type-1A (P36894 whole entry): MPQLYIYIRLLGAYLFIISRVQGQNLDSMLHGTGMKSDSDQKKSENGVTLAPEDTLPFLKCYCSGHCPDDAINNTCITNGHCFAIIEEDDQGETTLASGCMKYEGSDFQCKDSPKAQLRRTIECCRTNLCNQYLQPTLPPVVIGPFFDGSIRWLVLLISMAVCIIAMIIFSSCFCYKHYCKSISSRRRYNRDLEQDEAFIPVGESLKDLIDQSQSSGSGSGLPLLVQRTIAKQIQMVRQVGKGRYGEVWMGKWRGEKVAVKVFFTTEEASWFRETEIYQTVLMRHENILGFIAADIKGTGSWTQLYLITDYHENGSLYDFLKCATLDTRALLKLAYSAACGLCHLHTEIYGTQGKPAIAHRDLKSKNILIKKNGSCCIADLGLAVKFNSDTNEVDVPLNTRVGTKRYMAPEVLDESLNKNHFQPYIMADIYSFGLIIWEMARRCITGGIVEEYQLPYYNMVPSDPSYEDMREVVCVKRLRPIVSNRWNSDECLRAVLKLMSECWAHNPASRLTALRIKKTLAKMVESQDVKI
Chain of Proto-oncogene tyrosine-protein kinase receptor Ret (Homo sapiens), P07949 [V804L] (P07949 whole entry V804L): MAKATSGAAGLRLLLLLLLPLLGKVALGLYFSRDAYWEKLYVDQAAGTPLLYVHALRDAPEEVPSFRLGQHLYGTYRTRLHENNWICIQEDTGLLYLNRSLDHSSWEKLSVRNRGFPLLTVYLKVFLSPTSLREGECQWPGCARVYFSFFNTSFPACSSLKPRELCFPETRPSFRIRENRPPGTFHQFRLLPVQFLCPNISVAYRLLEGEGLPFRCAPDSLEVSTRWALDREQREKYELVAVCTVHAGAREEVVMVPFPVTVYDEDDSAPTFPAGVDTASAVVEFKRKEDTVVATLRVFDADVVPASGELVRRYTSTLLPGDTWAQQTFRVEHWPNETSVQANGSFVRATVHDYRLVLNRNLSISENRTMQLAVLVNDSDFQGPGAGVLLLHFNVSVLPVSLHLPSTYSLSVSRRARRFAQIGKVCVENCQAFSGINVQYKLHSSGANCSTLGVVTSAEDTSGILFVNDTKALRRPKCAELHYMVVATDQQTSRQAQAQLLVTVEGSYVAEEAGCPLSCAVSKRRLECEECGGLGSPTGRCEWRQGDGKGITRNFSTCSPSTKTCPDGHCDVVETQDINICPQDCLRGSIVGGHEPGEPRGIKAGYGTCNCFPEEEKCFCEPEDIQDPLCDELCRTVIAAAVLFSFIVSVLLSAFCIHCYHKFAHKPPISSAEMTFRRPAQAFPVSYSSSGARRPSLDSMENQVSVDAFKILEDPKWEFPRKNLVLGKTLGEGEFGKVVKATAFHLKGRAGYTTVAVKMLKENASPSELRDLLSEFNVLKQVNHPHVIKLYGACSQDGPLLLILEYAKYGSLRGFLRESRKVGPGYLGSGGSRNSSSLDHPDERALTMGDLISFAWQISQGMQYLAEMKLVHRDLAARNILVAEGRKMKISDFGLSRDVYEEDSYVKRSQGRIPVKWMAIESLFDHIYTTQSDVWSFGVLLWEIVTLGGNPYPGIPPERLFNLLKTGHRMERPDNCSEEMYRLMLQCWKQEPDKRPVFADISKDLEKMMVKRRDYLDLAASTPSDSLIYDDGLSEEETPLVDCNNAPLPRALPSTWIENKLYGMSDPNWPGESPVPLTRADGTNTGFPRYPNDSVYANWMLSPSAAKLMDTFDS
Chain of Proto-oncogene tyrosine-protein kinase receptor Ret (P07949 whole entry): as the sequence (P07949 whole entry V804L) above, with L804V counted along it
Chain of Eukaryotic translation initiation factor 2-alpha kinase 1 (Homo sapiens) (Q9BQI3 whole entry): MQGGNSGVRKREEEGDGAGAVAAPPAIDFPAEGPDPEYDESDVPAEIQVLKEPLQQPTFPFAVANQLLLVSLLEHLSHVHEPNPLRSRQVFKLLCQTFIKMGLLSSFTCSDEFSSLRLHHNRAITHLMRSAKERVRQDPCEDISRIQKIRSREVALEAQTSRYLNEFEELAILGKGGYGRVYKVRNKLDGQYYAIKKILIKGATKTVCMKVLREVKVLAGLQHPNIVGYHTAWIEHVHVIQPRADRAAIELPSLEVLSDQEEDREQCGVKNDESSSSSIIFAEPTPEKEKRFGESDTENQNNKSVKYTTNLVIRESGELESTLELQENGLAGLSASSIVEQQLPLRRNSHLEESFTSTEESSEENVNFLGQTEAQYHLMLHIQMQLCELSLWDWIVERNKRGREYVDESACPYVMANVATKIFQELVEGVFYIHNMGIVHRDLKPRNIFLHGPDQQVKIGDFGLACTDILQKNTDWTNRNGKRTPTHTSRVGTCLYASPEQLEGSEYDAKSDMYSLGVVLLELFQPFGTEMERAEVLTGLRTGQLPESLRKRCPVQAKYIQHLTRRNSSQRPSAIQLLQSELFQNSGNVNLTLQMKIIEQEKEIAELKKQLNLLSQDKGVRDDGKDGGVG
Chain of Proto-oncogene tyrosine-protein kinase receptor Ret (Homo sapiens), P07949 [M918T] (P07949 whole entry M918T): as the sequence (P07949 whole entry V804L) above, with L804V, M918T counted along it
Chain of Proto-oncogene tyrosine-protein kinase receptor Ret (Homo sapiens), P07949 [V804M] (P07949 whole entry V804M): as the sequence (P07949 whole entry V804L) above, with L804M counted along it

C=CC(=O)Nc1ccc(C(=O)Nc2[nH]nc3c2CN(C(=O)N[C@H](CN(C)C)c2ccccc2)C3(C)C)cc1
% of engagement ([1]; Selectivity number of off-targets 0.0, Selectivity number of targets 233.0, Source Knowledge https://www.sciencedirect.com/science/article/pii/S2451945619300674?via%3Dihub): 18.9% | % of engagement [1]: 8.9%

C=CC(=O)Nc1cc(-n2c(=O)ccc3cnc4ccc(-c5ccc(NS(C)(=O)=O)cc5)cc4c32)ccc1C
% of control ([2]; at 1 µM): 100% | % of control ([2]; at 10 µM): 98%

Nc1cnc(N2CCc3cc(S(=O)(=O)Nc4c(F)cc(Cl)cc4F)cc(N4CCCC4=O)c32)nc1 [TP-020n]
% of control [3]: 70% | % of control [4]: 100%

COc1cc(Nc2nc(C)cc(-c3cnn4nc(OC)ccc34)n2)cc(C(F)(F)F)c1
% of control [5]: 95% | % of control [6]: 98% | % of control [7]: 78% | % of control [8]: 100%

Cc1ccc(-c2ccc3c(ccc4sc5c(c43)NC[C@@H](C)NC5=O)n2)cn1
% of inhibition [9]: -3%

CN1Cc2nccc(-c3cn(C)nc3-c3ccc(F)cc3)c2C1=O
% of inhibition [10]: -3%

CN(C)CCOc1ccc(-c2nc(-c3ccncc3)c(-c3ccc4c(c3)CC/C4=N\O)[nH]2)cc1
% of control [11]: 100%

CCC(=O)N1CCN(c2ccc(-n3c(=O)ccc4cnc5ccc(-c6cnc7ccccc7c6)cc5c43)cc2C(F)(F)F)CC1
% of control [12]: 100%

CN(C)C/C=C/C(=O)Nc1ccc(C(=O)N2CCCC(Nc3ncc(Cl)c(-c4c[nH]c5ccccc45)n3)C2)cc1 (configuration not stated)
% of control [13]: 84% | % of control [14]: 84% | % of control [15]: 97%
